Data on 90 molecules can be found in a melting point compilation (Tetko et al.; mined from patent text by program, amines drawn as free bases though some values may be those of a salt).

Molecule `CN(C)c1ccc(C(=O)c2ccccc2)cc1NC(=O)c1ccn2c1CSC2c1cccnc1` (stereo not given) returned a melting point of 186 °C.

`CC(C)(C)NS(=O)(=O)c1ccccc1CCO` came in with a melting point of 43 to 45 °C.

Molecule `Cc1cc(CO)oc1CN(C)C` displayed a melting point of 104 to 106 °C.

Take `O=C1Cc2c(Cl)cccc2Sc2cc(F)ccc21`: the melting point lay in the range of 109 to 111 °C.

With `Cc1cc(OCC(O)CNC(C)(C)C)ccc1C=O` (stereo not given), the melting point is 82 to 84 °C.

For the molecule `CCCN(C1CCN(C)CC1)S(=O)(=O)c1ccc(Nc2nccc(Nc3ccc(F)cc3)n2)cc1`, the melting point was 232 °C.

`COc1ccc(C(=O)c2c(N)sc(C)c2C)cc1OC` yielded a melting point of 172 to 173 °C.

Turning to `COc1ccc(S(=O)(=O)Nc2nc(-c3cccc4ccccc34)cs2)cc1`, the melting point was 98 to 100 °C.

On to `O[C@@H]1CN=C(c2ccccc2F)O[C@H]1c1ccccc1` (racemic), for which the melting point was 142 °C.

`CCOCc1nc2c(N)nc3cc(-c4ccccc4)cnc3c2n1CC(C)(C)O`: the melting point was in the range of 158 to 159 °C.

Turning to `O=C1c2ccccc2C(=O)c2sc(-c3cc(Br)c(Br)o3)nc21`, the melting point was more than 260 °C.

`COC(=O)c1c(C)[nH]c(C)c1C1=CC(=O)c2ncccc2C1=O` displayed a melting point of 237 to 241 °C.

On to `CCC(CC)n1nnc2c(Nc3ccc(C(C)C)cc3Br)nc(C)cc21`, for which the melting point is 144 to 145 °C.

As to `COC(=O)C(Cc1ccc(OCC(=O)Nc2ccc(Oc3ccc(C45CC6CC(CC(C6)C4)C5)cc3)cc2N(C)C(=O)OC(C)(C)C)cc1)OCc1ccc(F)cc1` (stereo not given), the melting point was 52 to 56 °C.

In turn, `CC(=O)c1ccc(-c2nc(=O)c3ccccc3s2)nc1` showed a melting point of 276 to 277 °C.

As for `O=C(Nc1ccc(Oc2ccc(Br)cc2)nc1)c1ccccc1C(c1ccc(O)cc1)c1ccc(O)cc1`, the melting point fell in the range of 218 to 223 °C.

The molecule `CC(C)c1oc(C=Cc2ccccc2)nc1CO` displayed a melting point of 91 to 92 °C.

In the case of `N=C(N)Nc1nc(Cl)cc(Cl)n1`, the melting point is more than 360 °C.

For `Cc1cc2c(s1)CCCC1CC(=O)N(c3ccc(Cl)cc3)N=C21` (stereo not given), the melting point is 119 to 121 °C.

On to `O=c1oc(=O)n(Cc2ccc(F)cc2)c2ccc(F)cc12`, for which the melting point is 107 °C.

In turn, `Oc1ccc(-c2c3ccc(O)cc3cc3sc4ccccc4c23)cc1` registered a melting point of 233 to 235 °C.

Turning to `OCC1OC(n2cnc3c(NCCC(c4ccccc4)c4ccccc4)ncnc32)C(O)C1O` (stereo not given), the melting point is 103 to 118 °C.

As to `CCCCCCCCCCc1nc(N(C)C)nc(OC)c1O`, the melting point lay in the range of 59 to 60 °C.

The molecule `C/C(=C\c1ccc(OCCN(C)C)cc1)c1ccc2c(c1)SCC(C)(C)CS2` returned a melting point of 46 to 47 °C.

As to `COC(=O)c1ccc(SC)c(C(F)(F)F)c1`, the melting point lay within 76 to 77 °C.

Molecule `CC(S)C(=O)N1c2ccccc2CCC1C(=O)O` (stereo not given) registered a melting point of 141 to 143 °C.

`CC1(c2ccc(-c3ccccc3)cc2)OC(=O)C(OCc2ccccc2)=C1O` (stereo not given) yielded a melting point of 182 to 183 °C.

Regarding `CCOC(=O)c1cn2c3c(c(-c4ccc(S(N)(=O)=O)cc4)c(F)cc3c1=O)OCC2C` (stereo not given), the melting point was more than 250 °C.

The molecule `O=C(O)COc1ccc2c(-c3ccc(Cl)c(Cl)c3)noc2c1Cl` showed a melting point of 222 to 224 °C.

`CN(C)C(=Nc1ccccc1)N(C)N1C(=O)c2ccccc2C1=O`: the melting point lay in the range of 146 to 148 °C.

With `CCOC(=O)COc1cc(C2C(C(=O)OC)=C(C)NC(C)=C2C(=O)OC)ccc1OC`, the melting point turned out to be 170 °C.

`CNC(=O)c1ccc(-c2ccc3oc(C4CCN(C(=O)OC(C)C)CC4)nc3c2)cc1C` showed a melting point of 151 to 154 °C.

In turn, `COCCOc1cc2ncc(C#N)c(NC3=CC(=O)C(C)=CC3=O)c2cc1OC` displayed a melting point of 174 to 177 °C.

In the case of `CSc1ccc2nccn2n1`, the melting point fell in the range of 66 to 68 °C.

Turning to `CN(CC(=O)Nc1ccccc1N)C(=O)OC(C)(C)C`, the melting point was 134 to 136 °C.

In the case of `CCOC(=O)c1cnn(-c2ccc(C=O)cc2)n1`, the melting point fell in the range of 126 to 129 °C.

Molecule `CC(C)c1ncc(O)c(O)n1` showed a melting point of 187 °C.

The molecule `CCOC(=O)CN(C)CC=CC(=O)Nc1ccc2ncnc(Nc3cccc(Br)c3)c2c1` registered a melting point of 182 to 183 °C.

As to `CNc1cc2c(cc1OC)OCO2`, the melting point came to 66 °C.

Take `CC1COC2(c3ccccc3)c3cc(Cl)ccc3NC(=O)CN12` (stereo not given): the melting point was in the range of 84 to 98 °C.

Consider `COc1cc(OC)nc(-n2c(OC)nc3ccccc32)n1`, for which the melting point lay in the range of 121 to 122 °C.

The molecule `CC(C)(C)C1=NN(c2ccc(C(=O)O)cc2)C(c2ccc(Br)cc2)C1` (stereo not given) registered a melting point of 222 °C.

`CC(C)CNC(=O)COC1c2ccccc2C(=O)N1c1ccc2ccc(Cl)nc2n1` (stereo not given): the melting point amounted to 146 °C.

In turn, `Oc1ccc2oc3ccccc3c2c1Cn1c(=S)sc2ccccc21` displayed a melting point of 174 to 180 °C.

Consider `C=CCOC(=O)c1c(C)nc2c(cnn2CCOCC)c1N`, for which the melting point was 38 to 40 °C.

Molecule `CC[C@H]1[C@H](O)CC(=O)N1c1ccc(C#N)c(Cl)c1` displayed a melting point of 118 to 120 °C.

Take `c1ccc2c(c1)CCN(Cc1c[nH]c3ncccc13)C2`: the melting point fell in the range of 190 to 192 °C.

Molecule `C(=CCN(c1ccccc1)c1ccccc1)CN(c1ccccc1)c1ccccc1` yielded a melting point of 105 to 107 °C.

Molecule `O=C(CCC1CCCCC1)NC1N=C(c2ccccc2)c2ccccc2-n2c1noc2=O` (stereo not given) gave a melting point of 226 °C.

With `COC(=O)/C(=C/C=C/c1cc2ccccc2o1)OC`, the melting point was 108 °C.

Regarding `CCCNC(=O)c1cnc2cc(C)ccn2c1=O`, the melting point was 194 to 196 °C.

Consider `CSc1ccc(COc2c(C)c(C)c3c(c2C)C(c2ccc(C(C)C)cc2)C(C)(C)O3)cc1` (stereo not given), for which the melting point is 118 to 120 °C.

`C[C@@H]1CN(c2ccc(S(=O)(=O)c3ccccc3)c3ccccc23)C[C@H](C)N1` yielded a melting point of 168 to 169 °C.

The molecule `O=C(O)CCn1c(=O)n2n(c1=O)C(C(=O)O)C=CC2` (stereo not given) came in with a melting point of 172 to 175 °C.

In the case of `CCOC(=O)COc1ccc(C=CC(=O)O)cc1`, the melting point worked out at 154 °C.

`Cc1cc(-c2ccc(C(=O)N3CCN(S(=O)(=O)c4ccc5cc(Br)ccc5c4)CC3)cc2)ccn1` returned a melting point of 204 to 205 °C.

With `CCCCCCCC(=O)NC(=O)OCc1nc(C(C)C)c(Sc2cc(Cl)cc(Cl)c2)n1Cc1ccncc1`, the melting point lay in the range of 139 to 141 °C.

Turning to `CN(C)S(=O)(=O)c1ccc2c(C=O)c[nH]c2c1`, the melting point lay within 250 to 252 °C.

Turning to `CCSc1noc(-c2ccc(NS(C)(=O)=O)c(Oc3ccc(F)cc3F)c2)n1`, the melting point was 116 to 119 °C.

Take `Nc1nc(OCCC2CCCCC2)c2[nH]cnc2n1`: the melting point came out at 210 °C.

With `NC(=O)NCC1CCCc2cc(NS(=O)(=O)c3cccc(F)c3)ccc21` (stereo not given), the melting point was 162 to 163 °C.

The molecule `O=C1CC(c2ccccc2)c2ccccc2CN1` (stereo not given) registered a melting point of 180 to 181 °C.

For `COc1ccc(Nc2nc(Cl)c3sccc3n2)c(C)c1`, the melting point lay within 151 to 153 °C.

`CCOc1cc(N)c([N+](=O)[O-])cc1C(=O)OC` yielded a melting point of 210 °C.

Take `COc1cccc(C2C(CO)CC(=O)N2c2ccccc2)c1` (stereo not given): the melting point was 123 to 126 °C.

`NS(=O)(=O)c1ccc(Nc2ccccc2)c([N+](=O)[O-])c1` returned a melting point of 155 °C.

Molecule `N#Cc1ccc(-c2ccc(O)cc2)cc1F` yielded a melting point of 67 to 68 °C.

In the case of `CCOC(=O)c1cc(Nc2cccnc2)c(=O)n(CC)n1`, the melting point is 166 to 167 °C.

The molecule `CCOC(=O)c1cn(C)c2c(=O)oc3ccccc3c2c1=O` came in with a melting point of 203 to 208 °C.

Regarding `COc1cccc(-c2csc(N3CCN(C(=O)Nc4onc(C)c4C)CC3)n2)c1`, the melting point lay within 158 to 159 °C.

On to `Cc1cc(-c2cccc(C(F)(F)F)c2)c2ncc(C(F)(F)F)nc2c1`, for which the melting point was 93 to 94 °C.

As for `CCc1cccc(CC)c1N(C=O)CC(=O)O`, the melting point lay within 139 to 141 °C.

`Cc1cc(CCCCCOc2cc(Cl)c(-c3nnco3)c(Cl)c2)on1` returned a melting point of 73 to 74 °C.

The molecule `CCOC(=O)c1cn(CC)c2nc(OC)ncc2c1=O` showed a melting point of 149 °C.

In turn, `CCOC(=O)C(Cc1ccc(CC(F)(F)C(F)(F)F)cc1)C(=O)c1cccc(Cl)c1` (stereo not given) displayed a melting point of 81 to 82 °C.

The molecule `CC(C)(C)OC(=O)N1C2CCC1CN(CC(O)COc1ccc(C#N)cc1)C2` (stereo not given) came in with a melting point of 98 to 104 °C.

Turning to `CCOc1ccc(CC)cc1-c1nc2ccc(C(=O)O)cc2c(=O)[nH]1`, the melting point is more than 310 °C.

`Nc1nc2ccccc2n1-c1cccc(-c2ccc3[nH]ccc3c2)c1` yielded a melting point of 120 to 123 °C.

As to `O=C(c1cc(-c2ccccc2)c(=O)n2c1-c1ccccc1C2)N1CCN(c2ccccc2)CC1`, the melting point was in the range of 208 to 210 °C.

Consider `O=c1cnc2c(NC(CO)CO)nc(SCc3cccc(C(F)(F)F)c3F)nc2[nH]1`, for which the melting point was 244 to 245 °C.

For `CCc1nc2cc(C(=O)O)c(Cl)cc2n1-c1ccc(CCNC(=O)NS(=O)(=O)c2ccc(C)cc2)cc1`, the melting point lay within 145 to 150 °C.

Consider `Cc1ccc2c(c1)C(=O)c1ccccc1S2(=O)=O`, for which the melting point was 179 to 198 °C.

The molecule `CNC(=O)c1cc2c(c(F)c1F)N(c1ccc(I)cc1C)COC2=O` returned a melting point of 219 to 223 °C.

The molecule `CCOC(=O)c1ccoc1Cn1c(NC2CCN(C(=O)OCC)CC2)nc2ccccc21` showed a melting point of 162 °C.

In the case of `CCOC(=O)c1csc(-c2cccnc2)n1`, the melting point was in the range of 73 to 75 °C.

As to `O=C(O)COc1cccc(Cn2cc(C3c4ccccc4C=Cc4ccccc43)c(=S)[nH]c2=O)c1`, the melting point lay within 148 to 155 °C.

`O=C(NCCC1CCCCC1)c1cc(-c2ncc(Cl)cc2C(=O)O)ccc1Cl` returned a melting point of 208 to 211 °C.

`COc1cc(S(=O)(=O)N2CCN(C(=O)C=C(c3ccccc3)c3ccccc3)CC2)cc(OC)c1OC` displayed a melting point of 163 to 165 °C.

As to `CSC1=Nc2cc(Cl)ccc2N(C)c2cscc21`, the melting point lay within 156 to 158 °C.

As for `CC(=O)N(c1cccc(C(F)(F)F)c1)c1cccc(C(F)(F)F)c1`, the melting point is 73 to 74 °C.

A word on the melting point: it is the temperature of the solid-liquid transition.
